“Also recorded” adds a separate entry of the source. Read-outs that look alike come from different tables or passages of the source.

One may read the IC50 as the concentration at which inhibition is half-maximal.

The test system of assay [1] is anthrax lethal toxin (LT). The format is cell-based.
The subject of assay [2] is anthrax lethal toxin (LT). In words: cells. Format: cell-based, murine.
Another assay has as its system LT. The note with it: read-out: IC50 of previously reported toxin entry inhibitors; cited from earlier work.
In the next assay the test system is EGFR. Format: cell-based.
The test system of another assay is acidic compartments. Format: cell-based.
In another assay the test system is influenza A/WSN/33 virus. Format: cell-based.
The subject of another assay is THP-1 cells. Format: cell-based, human.
For a further assay, the system named is F. tularensis LVS. The format is cell-based.
Where [3] appears, read: Mus musculus, RAW264.7, read-out: IC50, inhibition of LT-induced cell death.
Where [4] appears, read: Mus musculus, RAW264.7, read-out: IC50 (In uM).

`Cc1cccc(C)c1NC(=O)N/N=C/c1ccc(N=[N+]=[N-])cc1F` [Compound 3, N^1-(4-AZIDO-2-FLUOROBENZYLIDENE)-N^4-(2,6-DIMETHYLPHENYL)SEMICARBAZONE]: the “protection against LT after UV irradiation and washout (media exchange)” value (shortened to “protection against LT … (media exchange)”) in assay [1] is on record as “did not provide protection; also recorded: did not offer statistically significant protection”. Further, the concentration for half-maximal inhibition (IC50) in assay [2] (setting [3]) is 2.2 µM.
For the molecule `CCN(CC)CCCC(C)Nc1c2ccc(Cl)cc2nc2ccc(OC)cc12` (stereo not shown) [quinacrine], the IC50 with LT was 40 µM.
On to `Cl.N` [ammonium chloride, reference compound], for which, in the assay with EGFR, the “EGFR stabilization at 60 minutes” value was “inhibit EGF-induced receptor degradation”. Besides, the “cell-associated Lysotracker Red fluorescence (neutralization of acidic compartments)” value in the assay on acidic compartments was “markedly decreased”. Besides, the IC50 in the assay with LT is 5000 µM.
As to `NC(=O)c1ncn([C@@H]2O[C@H](CO)[C@@H](O)[C@H]2O)n1` [ribavirin, reference compound], the “influenza virus infection (reporter activation)” value with influenza A/WSN/33 virus is reported as “effectively blocked reporter activation”.
As for `CCOC(=O)C1=C[C@@H](OC(CC)CC)[C@H](NC(C)=O)[C@@H](N)C1` [oseltamivir, reference compound], the “influenza virus infection (reporter activation)” value with influenza A/WSN/33 virus is “exhibited no protection”.
For `Cc1cccc(C)c1NC(=O)N/N=C/c1ccc(N=[N+]=[N-])cc1` [Compound 4, N^1-(4-AZIDOBENZYLIDENE)-N^4-(2,6-DIMETHYLPHENYL)SEMICARBAZONE], the “protection against LT … (media exchange)” value in assay [1] is “retained viability; also recorded: statistically significant protection; also recorded: conferred irreversible resistance to LT”. Besides, the IC50 was 2.8 µM in assay [2] (Mus musculus, RAW264.7); 2.82 µM in assay [2] (setting [4]); ~3 µM in assay [2] (setting [3]).
For `Cc1cccc(C)c1NC(=O)N/N=C/c1c(F)c(F)c(N=[N+]=[N-])c(F)c1F` [Compound 5, N^1-(4-AZIDO-2,3,5,6-TETRAFLUOROBENZYLIDENE)-N^4-(2,6-DIMETHYLPHENYL)SEMICARBAZONE], the “protection against LT … (media exchange)” value in assay [1] is on record as “statistically significant protection; also recorded: most effective irreversible protection; also recorded: conferred irreversible resistance to LT”. For the same molecule, the “protection of cells from LT (in words)” value in assay [2] is reported as “poor inhibitor; also recorded: only weakly protective”.
In the case of `C#CCN(/N=C/c1ccc(Br)cc1)C(=O)Nc1c(C)cccc1C` [Compound 17, 2-(4-BROMOBENZYLIDENE)-N-(2,6-DIMETHYLPHENYL)-1-(PROP-2-YN-1-YL)HYDRAZINECARBOXAMIDE], the IC50 is > 12.5 µM in assay [2] (Mus musculus, RAW264.7) and > 12.5 µM in assay [2] (setting [3]).
`Cc1cccc(C)c1NC(=O)N/N=C/c1cccs1` [Compound 13w, N^1-(THIOPHENE-2-YLMETHYLENE)-N^4-(2,6-DIMETHYLPHENYL)SEMICARBAZONE]: the IC50 is > 25 µM in assay [2] and > 25 µM in assay [2] (Mus musculus, RAW264.7).
Consider bafilomycin A1 [reference compound], for which the “cell-associated Lysotracker Red fluorescence (neutralization of acidic compartments)” value in the assay with acidic compartments is given as “markedly decreased”. Besides, in the assay with THP-1 cells, the “trafficking of Texas-red dextran to phagosomes” value is on record as “Neither EGA nor bafilomycin A1 inhibited”. For the same molecule, in the assay with F. tularensis LVS, the “phagocytic uptake of F. tularensis LVS” value is given as “Neither EGA nor bafilomycin A1 blocked”.
With `Cc1cccc(C)c1NC(=O)N/N=C/c1ccc(C(C)C)cc1` [Compound 13m, N^1-(4-I-PROPYLBENZYLIDENE)-N^4-(2,6-DIMETHYLPHENYL)SEMICARBAZONE], the IC50 in assay [2] (Mus musculus, RAW264.7) came to 6.5 µM; in assay [2] (setting [4]), 6.48 µM.
Take `Cc1cccc(C)c1NC(=O)N/N=C/c1c(F)cc(Br)cc1F` [Compound 13y, N^1-(4-BROMO-2,6-DIFLUOROBENZYLIDENE)-N^4-(2,6-DIMETHYLPHENYL)SEMICARBAZONE]: the IC50 stood at 4 ± 0.8 µM in assay [2]; 3.9 µM in assay [2] (Mus musculus, RAW264.7); 3.95 µM in assay [2] (setting [4]).
On to `Cc1cccc(C)c1NC(=O)N/N=C/c1ccc(F)cc1` [Compound 13e, N^1-(4-FLUOROBENZYLIDENE)-N^4-(2,6-DIMETHYLPHENYL)SEMICARBAZONE], for which the IC50 in assay [2] (Mus musculus, RAW264.7) stood at 7 µM; in assay [2] (setting [4]), 7 µM; in assay [2] (setting [3]), 7 µM.
Turning to `Cc1cccc(C)c1NC(=O)N/N=C/c1ccc(Br)o1` [Compound 13v, N^1-(5-BROMOFURAN-2-YLMETHYLENE)-N^4-(2,6-DIMETHYLPHENYL)SEMICARBAZONE], the IC50 is > 25 µM in assay [2] and > 25 µM in assay [2] (Mus musculus, RAW264.7).
On to `Cc1cccc(C)c1NC(=O)N/N=C/c1cccc(C(F)(F)F)c1Cl` [Compound 13b, N^1-(2-CHLORO-3-TRIFLUOROMETHYLBENZYLIDENE)-N^4-(2,6-DIMETHYLPHENYL)SEMICARBAZONE], for which the IC50 is > 25 µM in assay [2] (Mus musculus, RAW264.7) and > 25 µM in assay [2] (setting [4]).
Consider `Cc1cc(C)c(NC(=O)N/N=C/c2ccc(Br)cc2)c(C)c1` [Compound 9b, N^1-(4-BROMOBENZYLIDENE)-N^4-(2,4,6-DIMETHYLPHENYL)SEMICARBAZONE], for which the “fold less active than 1” value in assay [2] is “approximately 10 fold”. Moreover, the IC50 in assay [2] (Mus musculus, RAW264.7) was 12.6 µM; in assay [2] (setting [4]), 12.6 µM.
In the case of `Cc1cccc(C)c1/N=C(\N)N/N=C/c1ccc(Br)cc1` [Compound 22, 2-(4-BROMOBENZYLIDENE)-N′-(2,6-DIMETHYLPHENYL)HYDRAZINECARBOXIMIDAMIDE], in assay [2] (setting [3]), the IC50 was found to be 13.8 µM.
Take `Cc1cccc(C)c1NC(=O)N/N=C/c1ccc(Br)cc1Cl` [Compound 13z, N^1-(4-BROMO-2-CHLOROBENZYLIDENE)-N^4-(2,6-DIMETHYLPHENYL)SEMICARBAZONE]: the IC50 in assay [2] (Mus musculus, RAW264.7) worked out at 3.2 µM; in assay [2] (setting [4]), 3.24 µM.
As to `CCN(CC)CCCC(C)Nc1ccnc2cc(Cl)ccc12` (stereo not shown) [chloroquine], the IC50 in the assay on LT is 100 µM.
Turning to `COc1ccc(/C=N/NC(=O)Nc2c(C)cccc2C)cc1` [Compound 13n, N^1-(4-METHOXYBENZYLIDENE)-N^4-(2,6-DIMETHYLPHENYL)SEMICARBAZONE], the IC50 in assay [2] (Mus musculus, RAW264.7) is > 12.5 µM; in assay [2] (setting [4]) it was > 12.5 µM.
For `Cc1cccc(C)c1NC(=O)NNCc1ccc(Br)cc1` [Compound 14, 2-(4-BROMOBENZYL)-N-(2,6-DIMETHYLPHENYL)HYDRAZINECARBOXAMIDE], the “protection of cells from LT (in words)” value in assay [2] was “not protective”. The IC50 in assay [2] (Mus musculus, RAW264.7) is > 25 µM; in assay [2] (setting [4]), > 25 µM.
For the molecule `Cc1ccc(NC(=O)N/N=C/c2ccc(Br)cc2)c(C)c1` [Compound 9a, N^1-(4-BROMOBENZYLIDENE)-N^4-(2,4-DIMETHYLPHENYL)SEMICARBAZONE], in assay [2], the “protection of cells from LT (in words)” value is “not protective”. In addition, in assay [2] (Mus musculus, RAW264.7), the IC50 is > 25 µM.
As for `Cc1ccc(/C=N/NC(=O)Nc2c(C)cccc2C)cc1` [Compound 13k, N^1-(4-METHYLBENZYLIDENE)-N^4-(2,6-DIMETHYLPHENYL)SEMICARBAZONE], the IC50 was 2.9 µM in assay [2] (Mus musculus, RAW264.7) and 2.9 µM in assay [2] (setting [4]).
Regarding `Cc1cccc(C)c1NC(=O)N/N=C/c1ccncc1` [Compound 13t, N^1-(PYRIDIN-4-YLMETHYLENE)-N^4-(2,6-DIMETHYLPHENYL)SEMICARBAZONE], the IC50 in assay [2] (Mus musculus, RAW264.7) was > 25 µM.
Regarding `C#Cc1ccc(/C=N/NC(=O)Nc2c(C)cccc2C)cc1` [Compound 13o, N^1-(4-ETHYNYLBENZYLIDENE)-N^4-(2,6-DIMETHYLPHENYL)SEMICARBAZONE], the IC50 in assay [2] (Mus musculus, RAW264.7) is 1.7 µM; in assay [2] (setting [4]), 1.69 µM.

The record behind these values is patent US10730848B2 (priority 2013, dated 2020).
